# Legend:
# ROCK 1 = ROCK 1 (Homo sapiens, UniProt Q13464); experiment: In vitro Rho kinase inhibitory activity assay (ADP-Glo), Rho kinase 1; assay type: biochemical; settings: Ki by Cheng-Prusoff from IC50; 10 μM ATP, 25° C., expressed as range of activity
# Experimental: (§1) The effectiveness of compounds of the present invention to inhibit Rho kinase activity can be determined in a 10 μl assay containing 40 mM Tris pH7.5, 20 mM MgCl2 0.1 mg/mi BSA, 50 μM DTT and 2.5 μM peptide substrate (Myelin Basic Protein) using an ADP-Glo kit (Promega). Compounds were dissolved in DMSO such that the final concentration of DMSO was 1% in the assay. All reactions/incubations are performed at 25° C. Compound (2 ul) and either Rho kinase 1 or 2 (4 μl) were mixed and incubated for 30 mins. Reactions were initiated by addition of ATP (4 μl) such that the final concentration of ATP in the assay was 10 μM. After a 1 hour incubation 10 μl of ADP-Glo Reagent was added and after a further 45 minute incubation 20 ul of Kinase Detection Buffer was added and the mixture incubated for a further 30 minutes. The luminescent signal was measured on a luminometer. […] Compounds were tested in dose-response format and the inhibition of kinase activity was calculated at each concentration of compound. To determine the IC50 (concentration of compound required to inhibit 50% of the enzyme activity) data were fit to a plot of % inhibition vs Log10 compound concentration using a sigmoidal fit with a variable slope and fixing the maximum to 100% and the minimum to 0%. To determine the Ki values the Cheng-Prusoff equation was utilized (Ki=IC50/(1+[S]/Km).
# ROCK 2 = ROCK 2 (Homo sapiens, UniProt O75116); experiment: In vitro Rho kinase inhibitory activity assay (ADP-Glo), Rho kinase 2; assay type: biochemical; settings: Ki by Cheng-Prusoff from IC50; 10 μM ATP, 25° C., expressed as range of activity
# Chain of ROCK 2 (O75116 whole entry): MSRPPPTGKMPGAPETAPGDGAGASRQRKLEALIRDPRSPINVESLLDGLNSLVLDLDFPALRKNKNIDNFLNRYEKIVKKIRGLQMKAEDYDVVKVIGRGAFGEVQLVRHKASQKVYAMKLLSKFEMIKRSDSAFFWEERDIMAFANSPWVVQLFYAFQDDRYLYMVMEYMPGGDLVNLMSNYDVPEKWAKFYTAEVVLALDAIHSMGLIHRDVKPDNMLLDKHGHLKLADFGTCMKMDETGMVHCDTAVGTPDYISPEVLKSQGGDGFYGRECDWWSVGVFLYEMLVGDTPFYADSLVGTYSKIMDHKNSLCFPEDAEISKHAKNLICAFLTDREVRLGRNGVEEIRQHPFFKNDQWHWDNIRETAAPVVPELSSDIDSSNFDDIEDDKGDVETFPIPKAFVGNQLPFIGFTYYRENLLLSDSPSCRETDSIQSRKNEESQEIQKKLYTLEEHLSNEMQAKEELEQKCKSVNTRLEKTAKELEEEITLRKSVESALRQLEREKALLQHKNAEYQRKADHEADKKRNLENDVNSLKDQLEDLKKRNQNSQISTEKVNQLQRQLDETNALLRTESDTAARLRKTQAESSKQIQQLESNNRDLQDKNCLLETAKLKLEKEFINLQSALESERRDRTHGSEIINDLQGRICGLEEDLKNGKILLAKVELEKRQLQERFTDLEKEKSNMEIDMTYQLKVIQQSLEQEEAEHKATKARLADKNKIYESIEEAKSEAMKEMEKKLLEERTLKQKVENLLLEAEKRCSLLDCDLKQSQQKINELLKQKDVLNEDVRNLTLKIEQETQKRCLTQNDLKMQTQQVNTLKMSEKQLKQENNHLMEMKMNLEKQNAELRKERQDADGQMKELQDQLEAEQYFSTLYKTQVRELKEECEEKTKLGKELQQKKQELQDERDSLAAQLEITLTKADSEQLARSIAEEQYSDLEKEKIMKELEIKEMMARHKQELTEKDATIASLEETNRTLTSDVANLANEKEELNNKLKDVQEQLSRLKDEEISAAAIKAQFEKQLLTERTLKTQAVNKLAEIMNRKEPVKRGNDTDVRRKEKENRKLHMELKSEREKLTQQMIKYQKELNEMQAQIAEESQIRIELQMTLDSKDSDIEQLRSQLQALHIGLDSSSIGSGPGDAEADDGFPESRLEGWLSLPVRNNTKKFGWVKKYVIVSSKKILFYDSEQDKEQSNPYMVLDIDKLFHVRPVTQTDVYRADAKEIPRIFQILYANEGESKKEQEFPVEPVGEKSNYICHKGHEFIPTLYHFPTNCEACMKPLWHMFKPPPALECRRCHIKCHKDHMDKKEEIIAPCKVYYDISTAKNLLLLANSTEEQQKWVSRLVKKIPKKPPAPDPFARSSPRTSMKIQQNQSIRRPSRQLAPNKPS
# Experimental: as §1
# Chain of ROCK 1 (Q13464 whole entry): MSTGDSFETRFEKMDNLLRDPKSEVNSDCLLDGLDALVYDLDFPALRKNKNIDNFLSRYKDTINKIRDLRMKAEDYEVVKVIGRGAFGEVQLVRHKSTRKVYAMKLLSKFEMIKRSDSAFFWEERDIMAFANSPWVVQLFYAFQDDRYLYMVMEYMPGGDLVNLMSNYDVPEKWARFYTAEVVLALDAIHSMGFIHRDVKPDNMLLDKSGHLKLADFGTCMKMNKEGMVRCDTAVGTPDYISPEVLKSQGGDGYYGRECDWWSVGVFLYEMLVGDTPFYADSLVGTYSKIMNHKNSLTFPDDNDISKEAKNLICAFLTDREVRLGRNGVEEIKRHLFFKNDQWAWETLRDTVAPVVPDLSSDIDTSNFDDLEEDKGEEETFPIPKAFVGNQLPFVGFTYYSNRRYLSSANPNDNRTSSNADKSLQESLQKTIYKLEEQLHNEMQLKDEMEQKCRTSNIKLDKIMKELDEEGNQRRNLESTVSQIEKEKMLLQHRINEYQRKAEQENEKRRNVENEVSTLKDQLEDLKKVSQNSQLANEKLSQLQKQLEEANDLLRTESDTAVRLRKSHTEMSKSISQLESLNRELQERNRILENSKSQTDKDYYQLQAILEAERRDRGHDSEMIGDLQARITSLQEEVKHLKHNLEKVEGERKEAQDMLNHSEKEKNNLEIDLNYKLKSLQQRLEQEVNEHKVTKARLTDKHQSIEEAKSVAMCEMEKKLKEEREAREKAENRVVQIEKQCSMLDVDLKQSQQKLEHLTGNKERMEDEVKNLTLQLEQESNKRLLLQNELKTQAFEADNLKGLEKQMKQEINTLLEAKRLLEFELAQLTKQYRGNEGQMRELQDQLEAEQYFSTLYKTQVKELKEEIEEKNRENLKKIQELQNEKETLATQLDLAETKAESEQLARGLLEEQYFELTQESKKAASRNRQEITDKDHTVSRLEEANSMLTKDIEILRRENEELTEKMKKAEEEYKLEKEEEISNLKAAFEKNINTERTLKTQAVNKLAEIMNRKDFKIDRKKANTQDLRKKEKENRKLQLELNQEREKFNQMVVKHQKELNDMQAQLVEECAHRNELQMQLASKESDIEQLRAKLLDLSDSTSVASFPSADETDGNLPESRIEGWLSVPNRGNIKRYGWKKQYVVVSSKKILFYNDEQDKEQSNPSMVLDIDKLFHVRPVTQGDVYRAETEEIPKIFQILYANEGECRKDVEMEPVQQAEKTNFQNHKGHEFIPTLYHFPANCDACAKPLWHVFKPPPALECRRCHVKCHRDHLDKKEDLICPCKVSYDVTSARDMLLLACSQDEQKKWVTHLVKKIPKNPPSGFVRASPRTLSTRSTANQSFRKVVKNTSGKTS
Compound,Ki (ROCK 1) [nM],Ki (ROCK 2) [nM]
"c1cc(-c2c[nH]c3nccc(Oc4ccc5c(c4)CNCC5)c23)ccn1 [Example 1, 7-((3-(pyridin-4-yl)-1H-pyrrolo[2,3-b]pyridin-4-yl)oxy)-1,2,3,4-tetrahydroisoquinoline]",< 3,< 3
"NCc1ccc(Oc2ccnc3[nH]cc(-c4cncc(OCc5ccccc5)c4)c23)cc1 [Example 2, (4-((3-(5-(benzyloxy)pyridin-3-yl)-1H-pyrrolo[2,3-b]pyridin-4-yl)oxy)phenyl)methanamine]",> 30,> 30
"NCc1ccc(Oc2ccnc3[nH]cc(-c4cccc(OCc5ccccc5)c4)c23)cc1 [Example 3, (4-((3-(3-(benzyloxy)phenyl)-1H-pyrrolo[2,3-b]pyridin-4-yl)oxy)phenyl)methanamine]",> 30,> 30
"NCc1cc(F)c(Oc2ncnc3[nH]cc(-c4ccnc(NCc5ccccc5)c4)c23)c(F)c1 [Example 5, 4-(4-(4-(aminomethyl)-2,6-difluorophenoxy)-7H-pyrrolo[2,3-d]pyrimidin-5-yl)-N-benzylpyridin-2-amine]",< 3,< 3
"Fc1cc2c(cc1Oc1ncnc3[nH]cc(-c4ccnc(NCc5ccccc5)c4)c13)CNCC2 [Example 6, N-benzyl-4-(4-((6-fluoro-1,2,3,4-tetrahydroisoquinolin-7-yl)oxy)-7H-pyrrolo[2,3-d]pyrimidin-5-yl)pyridin-2-amine]",3 to 30,< 3
"NCc1cc(F)c(Oc2ccnc3[nH]cc(-c4ccnc(NCc5cccnc5)c4)c23)c(F)c1 [Example 7, 4-(4-(4-(aminomethyl)-2,6-difluorophenoxy)-1H-pyrrolo[2,3-b]pyridin-3-yl)-N-(pyridin-3-ylmethyl)pyridin-2-amine]",< 3,< 3
"c1ccc(CNc2cc(-c3c[nH]c4nccc(Oc5ccc6c(c5)CNCC6)c34)on2)cc1 [Example 9, N-benzyl-5-(4-((1,2,3,4-tetrahydroisoquinolin-7-yl)oxy)-1H-pyrrolo[2,3-b]pyridin-3-yl)isoxazol-3-amine]",3 to 30,< 3
"O=C(NC1CC1)C1CCN(c2cc(-c3c[nH]c4nccc(Oc5ccc6c(c5)CNCC6)c34)ccn2)C1 (stereo not shown) [Example 10, N-cyclopropyl-1-(4-(4-((1,2,3,4-tetrahydroisoquinolin-7-yl)oxy)-1H-pyrrolo[2,3-b]pyridin-3-yl)pyridin-2-yl)pyrrolidine-3-carboxamide]",< 3,< 3
"c1cncc(CNc2cc(-c3c[nH]c4nccc(Oc5ccc6c(c5)CNCC6)c34)ccn2)c1 [Example 16, N-(pyridin-3-ylmethyl)-4-(4-((1,2,3,4-tetrahydroisoquinolin-7-yl)oxy)-1H-pyrrolo[2,3-b]pyridin-3-yl)pyridin-2-amine]",< 3,< 3
"c1cc(-c2c[nH]c3nccc(Oc4ccc5c(c4)CNCC5)c23)cc(N2CCOCC2)n1 [Example 17, 4-(4-(4-((1,2,3,4-tetrahydroisoquinolin-7-yl)oxy)-1H-pyrrolo[2,3-b]pyridin-3-yl)pyridin-2-yl)morpholine]",< 3,< 3
"COCCNc1cc(-c2c[nH]c3nccc(Oc4ccc5c(c4)CNCC5)c23)ccn1 [Example 20, N-(2-methoxyethyl)-4-(4-((1,2,3,4-tetrahydroisoquinolin-7-yl)oxy)-1H-pyrrolo[2,3-b]pyridin-3-yl)pyridin-2-amine]",3 to 30,< 3
"NCc1ccc(Oc2ccnc3[nH]cc(-c4cnn(Cc5ccncc5)c4)c23)c(F)c1 [Example 23, (3-fluoro-4-((3-(1-(pyridin-4-ylmethyl)-1H-pyrazol-4-yl)-1H-pyrrolo[2,3-b]pyridin-4-yl)oxy)phenyl)methanamine]",3 to 30,< 3
"NCc1ccc(Oc2ccnc3[nH]cc(-c4cnn(CC5CCOCC5)c4)c23)c(F)c1 [Example 24, (3-fluoro-4-((3-(1-((tetrahydro-2H-pyran-4-yl)methyl)-1H-pyrazol-4-yl)-1H-pyrrolo[2,3-b]pyridin-4-yl)oxy)phenyl)methanamine]",3 to 30,< 3
"c1ccc(CNc2cccc(-c3c[nH]c4nccc(Oc5ccc6c(c5)CNCC6)c34)n2)cc1 [Example 27, N-benzyl-6-(4-((1,2,3,4-tetrahydroisoquinolin-7-yl)oxy)-1H-pyrrolo[2,3-b]pyridin-3-yl)pyridin-2-amine]",> 30,> 30
"O=S(=O)(CCNc1cc(-c2c[nH]c3nccc(Oc4ccc5c(c4)CNCC5)c23)ncn1)c1ccccc1 [Example 29, N-(2-(phenylsulfonyl)ethyl)-6-(4-((1,2,3,4-tetrahydroisoquinolin-7-yl)oxy)-1H-pyrrolo[2,3-b]pyridin-3-yl)pyrimidin-4-amine]",< 3,< 3

# Other lines, results leading:
Ki (ROCK 1) [nM],Ki (ROCK 2) [nM],Compound
< 3,< 3,"Cc1ccc(S(=O)(=O)CCNc2cc(-c3c[nH]c4nccc(Oc5c(F)cc(CN)cc5F)c34)ncn2)cc1 [Example 4, 6-(4-(4-(aminomethyl)-2,6-difluorophenoxy)-1H-pyrrolo[2,3-b]pyridin-3-yl)-N-(2-tosylethyl)pyrimidin-4-amine]"
< 3,< 3,"NCc1cc(F)c(Oc2ccnc3[nH]cc(-c4ccnc(NCC5CC5)c4)c23)c(F)c1 [Example 8, 4-(4-(4-(aminomethyl)-2,6-difluorophenoxy)-1H-pyrrolo[2,3-b]pyridin-3-yl)-N-(cyclopropylmethyl)pyridin-2-amine]"
< 3,< 3,"NCc1cc(F)c(Oc2ccnc3[nH]cc(-c4ccnc(NC(=O)C5CC5)c4)c23)c(F)c1 [Example 11, N-(4-(4-(4-(aminomethyl)-2,6-difluorophenoxy)-1H-pyrrolo[2,3-b]pyridin-3-yl)pyridin-2-yl)cyclopropanecarboxamide]"
3 to 30,< 3,"O=C(Cn1cc(-c2c[nH]c3nccc(Oc4ccc5c(c4)CNCC5)c23)nn1)NCc1ccccc1 [Example 12, N-benzyl-2-(4-(4-((1,2,3,4-tetrahydroisoquinolin-7-yl)oxy)-1H-pyrrolo[2,3-b]pyridin-3-yl)-1H-1,2,3-triazol-1-yl)acetamide]"
3 to 30,< 3,"O=C(NCc1ccccc1)c1cc(-c2c[nH]c3nccc(Oc4ccc5c(c4)CNCC5)c23)on1 [Example 13, N-benzyl-5-(4-((1,2,3,4-tetrahydroisoquinolin-7-yl)oxy)-1H-pyrrolo[2,3-b]pyridin-3-yl)isoxazole-3-carboxamide]"
< 3,< 3,"O=C(Cc1ccccc1)Nc1nnc(-c2c[nH]c3nccc(Oc4ccc5c(c4)CNCC5)c23)o1 [Example 14, 2-phenyl-N-(5-(4-((1,2,3,4-tetrahydroisoquinolin-7-yl)oxy)-1H-pyrrolo[2,3-b]pyridin-3-yl)-1,3,4-oxadiazol-2-yl)acetamide]"
3 to 30,< 3,"NCc1ccc(Oc2ccnc3[nH]cc(-c4ccnc(NCc5ccccc5)c4)c23)cc1 [Example 15, 4-(4-(4-(aminomethyl)phenoxy)-1H-pyrrolo[2,3-b]pyridin-3-yl)-N-benzylpyridin-2-amine]"
< 3,< 3,"c1cc(-c2c[nH]c3nccc(Oc4ccc5c(c4)CNCC5)c23)cc(NC[C@@H]2CCCO2)n1 [Example 18, (S)-N-((tetrahydrofuran-2-yl)methyl)-4-(4-((1,2,3,4-tetrahydroisoquinolin-7-yl)oxy)-1H-pyrrolo[2,3-b]pyridin-3-yl)pyridin-2-amine]"
< 3,< 3,"c1cc(-c2c[nH]c3nccc(Oc4ccc5c(c4)CNCC5)c23)cc(NC[C@H]2CCCO2)n1 [Example 19, (R)-N-((tetrahydrofuran-2-yl)methyl)-4-(4-((1,2,3,4-tetrahydroisoquinolin-7-yl)oxy)-1H-pyrrolo[2,3-b]pyridin-3-yl)pyridin-2-amine]"
< 3,< 3,"Cn1cc(-c2c[nH]c3nccc(Oc4ccc5c(c4)CNCC5)c23)cn1 [Example 21, 7-((3-(1-methyl-1H-pyrazol-4-yl)-1H-pyrrolo[2,3-b]pyridin-4-yl)oxy)-1,2,3,4-tetrahydroisoquinoline]"
< 3,< 3,"NCc1ccc(Oc2ccnc3[nH]cc(-c4cnn(Cc5ccccc5)c4)c23)c(F)c1 [Example 22, (4-((3-(1-benzyl-1H-pyrazol-4-yl)-1H-pyrrolo[2,3-b]pyridin-4-yl)oxy)-3-fluorophenyl)methanamine]"
< 3,< 3,"c1ccc(CNc2cc(-c3c[nH]c4nccc(Oc5ccc6c(c5)CNCC6)c34)ncn2)cc1 [Example 25, N-benzyl-6-(4-((1,2,3,4-tetrahydroisoquinolin-7-yl)oxy)-1H-pyrrolo[2,3-b]pyridin-3-yl)pyrimidin-4-amine]"
< 3,< 3,"c1ccc(CNc2nccc(-c3c[nH]c4nccc(Oc5ccc6c(c5)CNCC6)c34)n2)cc1 [Example 26, N-benzyl-4-(4-((1,2,3,4-tetrahydroisoquinolin-7-yl)oxy)-1H-pyrrolo[2,3-b]pyridin-3-yl)pyrimidin-2-amine]"
> 30,> 30,"c1ccc(CNc2ccnc(-c3c[nH]c4nccc(Oc5ccc6c(c5)CNCC6)c34)n2)cc1 [Example 28, N-benzyl-2-(4-((1,2,3,4-tetrahydroisoquinolin-7-yl)oxy)-1H-pyrrolo[2,3-b]pyridin-3-yl)pyrimidin-4-amine]"
